# Measured values: US20220281848A1, “PYRAZOLE-SUBSTITUTED PYRROLIDINONES AS HERBICIDES” (FMC Corporation, priority 2019, published 2022)
# Key:
# Format in all cases: in vivo
# [1] = tested on: plants; assay: Test D post-emergence, other plants of Tables D2 and D4; conditions: post-emergence
# Procedure, shortened: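 Seeds treated with herbicide safener; sown in soil; glasshouse, 16 h light, 65% humidity. Sprayed day 1 (pre) or ~day 12 (post). Spray in 0.2% v/v adjuvant. Scored 0–100 damage: 20 DAA pre, 15 d post.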
# [2] = tested on: barnyardgrass (Echinochloa crus-galli, ECHCG); assay: Test A post-emergence, barnyardgrass; conditions: after 13 d
# Procedure, shortened: (§1)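 Post-emergence spray at 8 d after sowing; doses 15.625, 62.5 or 250 g/ha in acetone/water 50:50 + 0.5% Tween 20. Glasshouse 24/16 °C, 14 h light, 65% RH, watered twice daily. Visual damage rating 0–100 at 13 d.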
# [3] = tested on: barnyardgrass (Echinochloa crus-galli, ECHCG); assay: Test A pre-emergence, barnyardgrass; conditions: after 13 d
# Procedure, shortened: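 After sowing in pots and a single day of glasshouse cultivation, the soil was treated with an aqueous spray of the compound (acetone/water 50:50, 0.5% Tween 20) giving 15.625, 62.5 or 250 g/ha. Evaluation after 13 d used a scale where 0 meant no damage and 100 total damage.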
# [4] = tested on: corn (Zea mays, ZEAMX); assay: Test A post-emergence, corn; conditions: after 13 d
# Procedure, shortened: as §1
# [5] = tested on: maize; assay: Test D pre-emergence, maize seed treated with a herbicide safener; conditions: ZEAMX, preemergent, 20 DAA
# Procedure, shortened: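 Safener-seed-treated maize and wheat were sprayed with an emulsifiable formulation diluted in 0.2% v/v adjuvant solution, one day after sowing (pre-emergence) or after about 12 days (post-emergence). Plants were grown in a glasshouse at 24/18 or 20/16 °C with 16 h light; damage was scored 0–100 at 20 DAA (pre) or 15 d (post).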
structure (smiles),measurement,setting,value
CN1CC(c2cc(C(F)(F)F)n(C)n2)C(C(=O)Nc2ccc(F)cc2C(C)(F)F)C1=O (racemic) [Compound 26],"damage to plant (100=total damage to plant; 0=no damage to plant), BIDPI","[1]; rate 130, evaluated after 15 d",0
same,"damage to plant (100=total damage to plant; 0=no damage to plant), BIDPI","[1]; rate 250, evaluated after 15 d",0
same,"damage to plant (100=total damage to plant; 0=no damage to plant), BIDPI","[1]; rate 500, evaluated after 15 d",0
same,"damage to plant (100=total damage to plant; 0=no damage to plant), BRAPL","[1]; rate 130, evaluated after 15 d",50
same,"damage to plant (100=total damage to plant; 0=no damage to plant), BRAPL","[1]; rate 250, evaluated after 15 d",60
same,"damage to plant (100=total damage to plant; 0=no damage to plant), BRAPL","[1]; rate 500, evaluated after 15 d",80
same,"damage to plant (100=total damage to plant; 0=no damage to plant), CYPES","[1]; rate 130, evaluated after 15 d",0
same,"damage to plant (100=total damage to plant; 0=no damage to plant), CYPES","[1]; rate 250, evaluated after 15 d",0
same,"damage to plant (100=total damage to plant; 0=no damage to plant), CYPES","[1]; rate 500, evaluated after 15 d",0
same,"damage to plant (100=total damage to plant; 0=no damage to plant), DIGSA","[1]; rate 130, evaluated after 15 d",0
same,"damage to plant (100=total damage to plant; 0=no damage to plant), DIGSA","[1]; rate 250, evaluated after 15 d",10
same,"damage to plant (100=total damage to plant; 0=no damage to plant), DIGSA","[1]; rate 500, evaluated after 15 d",60
same,"damage to plant (100=total damage to plant; 0=no damage to plant), ECHCG","[1]; rate 130, evaluated after 15 d",0
same,"damage to plant (100=total damage to plant; 0=no damage to plant), ECHCG","[1]; rate 250, evaluated after 15 d",0
same,"damage to plant (100=total damage to plant; 0=no damage to plant), ECHCG","[1]; rate 500, evaluated after 15 d",10
same,"damage to plant (100=total damage to plant; 0=no damage to plant), ELEIN","[1]; rate 130, evaluated after 15 d",0
same,"damage to plant (100=total damage to plant; 0=no damage to plant), ELEIN","[1]; rate 250, evaluated after 15 d",0
same,"damage to plant (100=total damage to plant; 0=no damage to plant), ELEIN","[1]; rate 500, evaluated after 15 d",10
same,"damage to plant (100=total damage to plant; 0=no damage to plant), EPHHL","[1]; rate 130, evaluated after 15 d",0
same,"damage to plant (100=total damage to plant; 0=no damage to plant), EPHHL","[1]; rate 250, evaluated after 15 d",10
same,"damage to plant (100=total damage to plant; 0=no damage to plant), EPHHL","[1]; rate 500, evaluated after 15 d",10
same,"damage to plant (100=total damage to plant; 0=no damage to plant), GLXMA","[1]; rate 130, evaluated after 15 d",0
same,"damage to plant (100=total damage to plant; 0=no damage to plant), GLXMA","[1]; rate 250, evaluated after 15 d",0
same,"damage to plant (100=total damage to plant; 0=no damage to plant), GLXMA","[1]; rate 500, evaluated after 15 d",0
same,"damage to plant (100=total damage to plant; 0=no damage to plant), IPOHE","[1]; rate 130, evaluated after 15 d",0
same,"damage to plant (100=total damage to plant; 0=no damage to plant), IPOHE","[1]; rate 250, evaluated after 15 d",0
same,"damage to plant (100=total damage to plant; 0=no damage to plant), IPOHE","[1]; rate 500, evaluated after 15 d",0
same,"damage to plant (100=total damage to plant; 0=no damage to plant), ORYSA","[1]; rate 130, evaluated after 15 d",0
same,"damage to plant (100=total damage to plant; 0=no damage to plant), ORYSA","[1]; rate 250, evaluated after 15 d",0
same,"damage to plant (100=total damage to plant; 0=no damage to plant), ORYSA","[1]; rate 500, evaluated after 15 d",0
same,"damage to plant (100=total damage to plant; 0=no damage to plant), PANMI","[1]; rate 130, evaluated after 15 d",0
same,"damage to plant (100=total damage to plant; 0=no damage to plant), PANMI","[1]; rate 250, evaluated after 15 d",0
same,"damage to plant (100=total damage to plant; 0=no damage to plant), PANMI","[1]; rate 500, evaluated after 15 d",0
same,"damage to plant (100=total damage to plant; 0=no damage to plant), SETFA","[1]; rate 130, evaluated after 15 d",0
same,"damage to plant (100=total damage to plant; 0=no damage to plant), SETFA","[1]; rate 250, evaluated after 15 d",60
same,"damage to plant (100=total damage to plant; 0=no damage to plant), SETFA","[1]; rate 500, evaluated after 15 d",60
same,"damage to plant (100=total damage to plant; 0=no damage to plant), SORVU","[1]; rate 130, evaluated after 15 d",0
same,"damage to plant (100=total damage to plant; 0=no damage to plant), SORVU","[1]; rate 250, evaluated after 15 d",0
same,"damage to plant (100=total damage to plant; 0=no damage to plant), SORVU","[1]; rate 500, evaluated after 15 d",0
same,damage to plant (100=total damage; 0=no damage) ECHCG,[2]; Post-Emergence at 62.5 g/ha,70
same,damage to plant (100=total damage; 0=no damage) ECHCG,[2]; Post-Emergence at 250 g/ha,90
same,damage to plant (100=total damage; 0=no damage) ECHCG,[3]; Pre-Emergence at 62.5 g/ha,90
same,damage to plant (100=total damage; 0=no damage) ECHCG,[3]; Pre-Emergence at 250 g/ha,90
same,damage to plant (100=total damage; 0=no damage) ZEAMX,[4]; Post-Emergence at 62.5 g/ha,60
same,damage to plant (100=total damage; 0=no damage) ZEAMX,[4]; Post-Emergence at 250 g/ha,80
same,"damage to plant (100=total damage to plant; 0=no damage to plant), ZEAMX",[5]; rate 15,0
same,"damage to plant (100=total damage to plant; 0=no damage to plant), ZEAMX",[5]; rate 30,0
same,"damage to plant (100=total damage to plant; 0=no damage to plant), ZEAMX",[5]; rate 60,0
same,"damage to plant (100=total damage to plant; 0=no damage to plant), ZEAMX",[5]; rate 130,0
same,"damage to plant (100=total damage to plant; 0=no damage to plant), ZEAMX",[5]; rate 250,0
same,"damage to plant (100=total damage to plant; 0=no damage to plant), ZEAMX",[5]; rate 500,0
